{"source": "paper PMC7799360", "about": "“Reprogramming immunosuppressive myeloid cells facilitates immunotherapy for colorectal cancer” (EMBO Molecular Medicine, 2020)", "key": {"[1]": {"target": "T1, human EP1 (Homo sapiens, UniProt P34995)", "T1 construct": "host or cells: CHO-Gα16", "T1 sequence (P34995 whole entry)": "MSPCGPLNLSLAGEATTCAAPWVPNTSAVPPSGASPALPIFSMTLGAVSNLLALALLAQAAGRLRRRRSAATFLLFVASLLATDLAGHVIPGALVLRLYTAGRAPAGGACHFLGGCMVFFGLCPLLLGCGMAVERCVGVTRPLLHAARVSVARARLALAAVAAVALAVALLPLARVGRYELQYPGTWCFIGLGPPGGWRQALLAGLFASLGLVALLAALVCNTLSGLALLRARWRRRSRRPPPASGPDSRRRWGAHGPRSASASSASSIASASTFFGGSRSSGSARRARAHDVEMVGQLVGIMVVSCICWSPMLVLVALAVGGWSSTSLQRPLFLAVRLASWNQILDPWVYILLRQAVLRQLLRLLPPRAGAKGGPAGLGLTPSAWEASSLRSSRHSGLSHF", "experiment": "PGE2-induced calcium flux assay in CHO-Gα16 cells", "type": "cell-based"}, "[2]": {"target": "T2, ADORA3 (Homo sapiens, UniProt P0DMS8)", "T2 construct": "Pharmaron (Beijing, China) performed the assay", "T2 sequence (P0DMS8 whole entry, species assumed)": "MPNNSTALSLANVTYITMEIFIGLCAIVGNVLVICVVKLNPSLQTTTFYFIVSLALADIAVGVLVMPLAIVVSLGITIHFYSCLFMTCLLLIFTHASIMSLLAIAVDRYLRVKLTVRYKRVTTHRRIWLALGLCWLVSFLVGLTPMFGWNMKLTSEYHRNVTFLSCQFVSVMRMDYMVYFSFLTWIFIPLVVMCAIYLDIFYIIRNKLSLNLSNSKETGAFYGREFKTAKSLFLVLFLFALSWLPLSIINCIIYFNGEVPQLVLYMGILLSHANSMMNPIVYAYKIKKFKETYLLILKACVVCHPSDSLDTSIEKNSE", "experiment": "LANCE Ultra cAMP assay", "type": "cell-based"}, "[3]": {"target": "T3, ADRB1 (Homo sapiens, UniProt P08588)", "T3 construct": "Pharmaron (Beijing, China) performed the assay", "T3 sequence (P08588 whole entry, species assumed)": "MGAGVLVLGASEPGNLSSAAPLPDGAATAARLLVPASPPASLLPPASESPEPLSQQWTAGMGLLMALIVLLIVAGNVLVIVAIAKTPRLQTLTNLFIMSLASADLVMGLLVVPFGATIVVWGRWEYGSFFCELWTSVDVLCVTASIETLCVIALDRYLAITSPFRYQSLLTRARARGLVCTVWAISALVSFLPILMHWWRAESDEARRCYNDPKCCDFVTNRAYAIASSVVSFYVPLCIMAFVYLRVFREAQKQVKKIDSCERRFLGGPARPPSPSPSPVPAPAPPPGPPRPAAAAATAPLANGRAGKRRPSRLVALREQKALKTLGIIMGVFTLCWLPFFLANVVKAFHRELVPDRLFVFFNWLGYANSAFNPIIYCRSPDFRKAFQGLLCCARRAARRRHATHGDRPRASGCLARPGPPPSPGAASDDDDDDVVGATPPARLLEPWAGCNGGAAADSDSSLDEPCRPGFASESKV", "experiment": "GPCR calcium flux assay", "type": "cell-based"}, "[4]": {"target": "T4, ADRB2 (Homo sapiens, UniProt P07550)", "T4 construct": "Pharmaron (Beijing, China) performed the assay", "T4 sequence (P07550 whole entry, species assumed)": "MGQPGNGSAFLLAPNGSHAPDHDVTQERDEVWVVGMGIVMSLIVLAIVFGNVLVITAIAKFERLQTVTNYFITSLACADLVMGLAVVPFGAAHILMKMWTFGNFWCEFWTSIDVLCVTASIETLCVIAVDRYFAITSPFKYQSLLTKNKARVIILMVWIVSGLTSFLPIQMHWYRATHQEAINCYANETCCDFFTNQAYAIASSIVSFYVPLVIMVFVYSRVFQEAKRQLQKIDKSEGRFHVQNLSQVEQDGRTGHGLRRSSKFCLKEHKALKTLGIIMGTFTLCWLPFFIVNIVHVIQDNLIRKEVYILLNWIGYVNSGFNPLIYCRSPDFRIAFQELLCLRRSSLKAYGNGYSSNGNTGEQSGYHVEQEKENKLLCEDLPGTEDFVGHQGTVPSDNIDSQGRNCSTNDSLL", "experiment": "GPCR calcium flux assay", "type": "cell-based"}, "[5]": {"target": "T5, BB1 (Homo sapiens, UniProt P28336)", "T5 construct": "Pharmaron (Beijing, China), contract laboratory", "T5 sequence (P28336 whole entry)": "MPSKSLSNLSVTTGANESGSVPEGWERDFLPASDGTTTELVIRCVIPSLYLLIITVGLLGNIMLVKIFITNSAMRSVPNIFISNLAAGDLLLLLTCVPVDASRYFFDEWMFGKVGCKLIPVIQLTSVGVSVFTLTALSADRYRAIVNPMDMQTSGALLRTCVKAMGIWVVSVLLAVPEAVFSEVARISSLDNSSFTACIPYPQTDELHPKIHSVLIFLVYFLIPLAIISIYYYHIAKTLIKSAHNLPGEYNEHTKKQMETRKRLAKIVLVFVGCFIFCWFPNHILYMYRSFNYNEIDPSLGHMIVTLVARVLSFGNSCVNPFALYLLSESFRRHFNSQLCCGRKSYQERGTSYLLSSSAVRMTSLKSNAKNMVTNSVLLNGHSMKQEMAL", "experiment": "GPCR calcium flux assay", "type": "cell-based"}, "[6]": {"experiment": "In vitro metabolic stability using liver microsome", "type": "in vitro ADME", "conditions": "liver microsomes"}, "[7]": {"system": "CT26 tumors", "experiment": "CT26 subcutaneous syngeneic tumor model in BALB/c mice", "type": "in vivo, mouse", "protocol": "(§1) Syngeneic mouse tumor‐bearing models were established as described previously (Tan et al., 2018). Tumor cells (5 × 10^5 ‐ 2 × 10^6) were suspended in 100 μl PBS and implanted subcutaneously into the flank of mice. Mice were randomized into different treatment groups when tumor volumes reached 100‐200 mm^3. V = L×W^2 × 0.52, where L is the longest diameter, and W is the shortest diameter. Tumor size and body weight were recorded every second or third day. Mouse survival was analyzed using the Kaplan–Meier method.\n(§2) Single agent or combination treatment was designed as follows: TP‐16 (37.5, 75, 150 mg/kg) or celecoxib (100 mg/kg) was formulated in 0.5% carboxymethylcellulose sodium (CMC‐Na, Sangon Biotech, Shanghai, China) and administered via oral gavage daily. In vivo anti‐PD1 antibody (clone RMP1‐14, BioXCell, West Lebanon, NH, USA) and rat IgG2a isotype control (clone 2A3, BioXCell) were diluted in sterile PBS and administered intraperitoneally at a dose of 50 μg twice weekly."}, "[8]": {"system": "CT26 tumors", "experiment": "CT26 tumors in BALB/c nude mice", "type": "in vivo, mouse", "conditions": "75 mg/kg", "protocol": "as §1, §2"}, "[9]": {"system": "MC38 tumors", "experiment": "MC38 colorectal cancer model in C57BL/6 mice", "type": "in vivo, mouse", "conditions": "MC38, 75 mg/kg p.o. daily", "protocol": "as §1, §2"}, "[10]": {"system": "Pan02 tumors", "experiment": "Pan02 pancreatic cancer model in C57BL/6 mice", "type": "in vivo, mouse", "conditions": "Pan02, C57BL/6 mice, 75 mg/kg p.o. daily", "protocol": "as §1, §2"}, "[11]": {"system": "4T1", "experiment": "Cell viability (MTS)", "type": "cell-based, mouse", "conditions": "4T1, 100 µM", "source_text": "(§3) The murine colon cancer (CT26), murine breast cancer (4T1), and human colon cancer (HCT116, HCT8, HT29, and DLD1) cell lines were obtained from American Type Culture Collection (ATCC). The murine cell lines of melanoma (B16F10), pancreatic cancer (Pan02), and colon cancer (MC38), Chinese hamster ovary (CHO) cell line, and human embryonic kidney cell lines (HEK293 and HEK293T) were purchased from the National Infrastructure of Cell Line Resource (Shanghai, China). Primary human endothelial cells (HUVECs) were kindly provided by Dr. Xinli Wang (Baylor College of Medicine, Houston, TX, USA) and cultured in endothelial cell medium (ScienCell, San Diego, CA, USA) according to the manufacturer’s instructions. The CHO‐Gα16 cell line was established in our previous study and maintained in DMEM/F12 medium containing puromycin (4 μg/ml) (Wu et al., 2018). Cell lines were maintained in vendor recommended growth medium supplemented with 10% FBS (Gibco, Waltham, MA, USA) and 1% penicillin/streptomycin solution (Gibco) at 37°C ins a humidified atmosphere (5% CO2). All cell lines were authenticated using short tandem repeat analysis. All cell lines were confirmed to be mycoplasma‐free by polymerase chain reaction (PCR) analysis. Cell viability was determined using CellTiter 96 ® Aqueous One Solution (Promega, Madison, WI).\n(§4) Appendix Figure S1. […]. The cytotoxicity curves\n(§5) . Mouse cancer cells: CT26\n(§6) . Human colon cancer cells: HCT116 (E),\n(§7) HCT8 (F), HT29 (G) and DLD1 (H). Human normal cell line: HUVECs (I). Cell\n(§8) viability was measured by MTS. Data are presented as mean ± SEM derived\n(§9) from three independent experiments (n=3).\n(§10) (1 picture or pasted object on this page, not shown here)"}, "[12]": {"system": "CT26", "experiment": "Cell viability (MTS)", "type": "cell-based, mouse", "conditions": "CT26, 100 µM", "source_text": "as §3, §4, §5, §6, §7, §8, §9, §10"}, "[13]": {"system": "MC38", "experiment": "Cell viability (MTS)", "type": "cell-based, mouse", "conditions": "MC38, 100 µM", "source_text": "as §3, §4, §5, §6, §7, §8, §9, §10"}, "[14]": {"system": "Panc02", "experiment": "Cell viability (MTS)", "type": "cell-based, mouse", "conditions": "Panc02, 100 µM", "source_text": "as §3, §4, §5, §6, §7, §8, §9, §10"}, "[15]": {"system": "DLD1", "experiment": "Cell viability (MTS)", "type": "cell-based, human", "conditions": "DLD1, 100 µM", "source_text": "as §3, §4, §5, §6, §7, §8, §9, §10"}, "[16]": {"system": "HT29", "experiment": "Cell viability (MTS)", "type": "cell-based, human", "conditions": "HT29, 100 µM", "source_text": "as §3, §4, §5, §6, §7, §8, §9, §10"}, "[17]": {"system": "mouse bone marrow cells", "experiment": "GM-CSF/IL-6-induced bone marrow MDSC differentiation assay", "type": "cell-based", "conditions": "GM-CSF/IL-6/PGE2, 0.1-10 μM TP-16, 6 days", "protocol": "Single‐cell suspensions of mouse BM cells were prepared by filtering femurs and tibias of 6‐week‐old female BALB/c mice through 40‐μm cell strainers (Falcon). These suspensions were treated with red blood cell lysis buffer and replated in conditioned medium. Monocyte differentiation, MDSC induction, and macrophage polarization were analyzed by FACS analysis (BD Biosciences) with FlowJo software.\nFor the MDSC induction assay, purified BM cells were cultured in RPMI1640 medium stimulated with recombinant mouse GM‐CSF (40 ng/ml, Peprotech) and IL‐6 (40 ng/ml, Peprotech) for 6 days to generate bone marrow‐derived MDSCs (Svoronos et al., 2017); the medium was refreshed every 3 days. Vehicle or PGE2 (10 nM) ± TP‐16 was added simultaneously on day 0 for FACS analysis of BM‐derived MDSCs. For quantitative PCR (qPCR) analysis of MDSCs, differentiated MDSCs were treated with vehicle or PGE2 (10 nM) ± TP‐16 for 12 h."}, "[18]": {"target": "ADORA2B (Homo sapiens, UniProt P29275)", "sequence (P29275 whole entry, species assumed)": "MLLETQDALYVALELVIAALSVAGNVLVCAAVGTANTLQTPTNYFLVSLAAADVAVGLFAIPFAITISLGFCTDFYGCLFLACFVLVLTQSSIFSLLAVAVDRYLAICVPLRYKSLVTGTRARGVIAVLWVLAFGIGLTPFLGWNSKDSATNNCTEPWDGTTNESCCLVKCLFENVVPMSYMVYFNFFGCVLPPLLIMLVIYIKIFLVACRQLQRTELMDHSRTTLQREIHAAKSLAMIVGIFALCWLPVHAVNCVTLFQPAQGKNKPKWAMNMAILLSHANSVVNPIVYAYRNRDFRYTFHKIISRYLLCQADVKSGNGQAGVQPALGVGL", "experiment": "LANCE Ultra cAMP assay"}, "[19]": {"target": "CB2 (Homo sapiens, UniProt P34972)", "sequence (P34972 whole entry, species assumed)": "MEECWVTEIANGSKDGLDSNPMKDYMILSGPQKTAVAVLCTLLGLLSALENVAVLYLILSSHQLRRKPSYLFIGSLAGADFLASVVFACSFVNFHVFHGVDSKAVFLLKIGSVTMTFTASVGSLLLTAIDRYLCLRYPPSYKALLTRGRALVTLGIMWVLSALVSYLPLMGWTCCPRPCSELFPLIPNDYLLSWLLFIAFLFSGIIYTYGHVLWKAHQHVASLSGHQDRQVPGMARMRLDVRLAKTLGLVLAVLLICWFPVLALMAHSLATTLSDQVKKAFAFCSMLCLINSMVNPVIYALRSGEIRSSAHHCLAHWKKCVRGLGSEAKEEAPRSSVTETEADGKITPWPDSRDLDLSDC", "experiment": "LANCE Ultra cAMP assay"}}, "data": [{"smiles": "C[C@H](NC(=O)c1c(Cc2ccc(F)cc2)sc2c1CCOC2)c1ccc(C(=O)O)cc1", "note": "[TP-16]", "values": [{"measurement": "IC50", "setting": "[1]", "value": "> 10", "unit": "µM"}, {"measurement": "IC50", "setting": "[2]", "value": "> 10", "unit": "µM"}, {"measurement": "IC50", "setting": "[3]", "value": "> 10", "unit": "µM"}, {"measurement": "IC50", "setting": "[4]", "value": "> 10", "unit": "µM"}, {"measurement": "IC50", "setting": "[5]", "value": "> 10", "unit": "µM"}, {"measurement": "CLhep predicted", "setting": "[6]; human, read-out: Predicted hepatic Clint", "value": "< 4.69", "unit": "mL/min/kg"}, {"measurement": "hepatocyte CLint", "setting": "[6]; human liver microsome", "value": "< 2.39", "unit": "µL/min/1e6 cells"}, {"measurement": "half-life", "setting": "[6]; human liver microsome, read-out: In vitro T1/2", "value": "> 581", "unit": "min"}, {"measurement": "CLint scaled", "setting": "[6]; human liver microsome, read-out: Scale-up Clint", "value": "< 6.07", "unit": "mL/min/kg"}, {"measurement": "%TGI (tumor growth inhibition)", "setting": "[7]; CT26, BALB/c mice, 37.5 mg/kg p.o. daily, 16 days", "value": 26.2, "unit": "%"}, {"measurement": "%TGI (tumor growth inhibition)", "setting": "[7]; CT26, BALB/c mice, 75 mg/kg p.o. daily, 16 days", "value": 47.4, "unit": "%"}, {"measurement": "%TGI (tumor growth inhibition)", "setting": "[7]; CT26, BALB/c mice, 150 mg/kg p.o. daily, 16 days", "value": 47.6, "unit": "%"}, {"measurement": "anti-tumor efficacy compared with E7046", "setting": "[7]; CT26, BALB/c mice, both 150 mg/kg", "value": "greater efficacy than E7046"}, {"measurement": "median survival time", "setting": "[7]; CT26, BALB/c, TP-16 75 mg/kg p.o. daily, anti-PD-1 50 μg i.p. twice weekly, 2 weeks, control 16 days", "value": 30, "unit": "days"}, {"measurement": "anti-tumor efficacy compared with celecoxib", "setting": "[7]; CT26, TP-16 75 mg/kg vs celecoxib 100 mg/kg, p.o. daily, 16 days", "value": "superior"}, {"measurement": "anti-tumor efficacy in BALB/c nude mice", "setting": "[8]", "value": "lost"}, {"measurement": "%TGI", "setting": "[9]", "value": 50.6, "unit": "%"}, {"measurement": "%TGI", "setting": "[10]", "value": 44.0, "unit": "%"}, {"measurement": "effect on cell viability", "setting": "[11]", "value": "did not affect the viability"}, {"measurement": "effect on cell viability", "setting": "[12]", "value": "did not affect the viability"}, {"measurement": "effect on cell viability", "setting": "[13]", "value": "did not affect the viability"}, {"measurement": "effect on cell viability", "setting": "[14]", "value": "did not affect the viability"}, {"measurement": "effect on cell viability", "setting": "[15]", "value": "did not affect the viability"}, {"measurement": "effect on cell viability", "setting": "[16]", "value": "did not affect the viability"}, {"measurement": "PGE2-dependent expansion of both mMDSCs and PMN-MDSCs", "setting": "[17]", "value": "significantly inhibited"}, {"measurement": "IC50", "setting": "[18]", "value": "> 10", "unit": "µM"}, {"measurement": "IC50", "setting": "[19]", "value": "> 10", "unit": "µM"}]}]}
